US20070032477A1, “Pteridine derivatives useful for making pharmaceutical compositions” (priority 2003, published 2007)

Experiments:
[1] = system: TNBS-induced colitis in C57 BL/6 mice; experiment: Trinitrobenzenesulfonate-induced colitis test in mice (Example 209); format: in vivo
Description: C57 BL/6 mice (4-5 weeks) were obtained from M&B (Denmark), bred under standard pathogen-free conditions and maintained in the certified animal facility of the University Hospital Gasthuisberg, Catholic University of Leuven (Belgium). Experiments were approved by the local Ethical Committee of Animal Experimentation. Mice were sensitized twice 10 days and 5 days before rectal challenge. For sensitization, a 2×2 cm field of the abdominal skin was shaved, and 100 μl of 5 mg trinitrobenzenesulfonate (hereinafter referred as TNBS) in 50% ethanol solution was applied. On the day of challenge, mice were first lightly anesthetized with metofane. Subsequently TNBS (1 mg in 50% ethanol) was administered per rectum via a round-tip needle equipped with a 1-ml syringe. The tip of the needle was inserted so that the tip was about 3.5 to 4 cm proximal to the anal verge and TNBS was injected with a total volume of 100 μl. To ensure distribution of TNBS within the entire colon and cecum, mice were held in a vertical position for 1 minute after the injection.
The compound of example 176 (2-amino-6-(3,4-dimethoxyphenyl)-4-[N-(4-methyl-phenyl)-piperazin-1-yl]pteridine) was given to the mice by daily gavage at the dose of 20 mg/kg (400 μg in 100 μl H2O). Control mice were treated with 100 μl H2O only. Body weights of all animals were recorded daily in order to follow the development of inflammatory colitis over a period of 10 days.
Both macroscopic and microscopic histology evaluations were performed as follows. Mice were sacrificed at day 2 by cervical […], the colon was excised and was immediately examined visually, and damage was scored on a 0-12 scale. Colon sections were then fixed in 6% formalin and embedded in paraffin, cut into sections, and then stained with hematoxylin and eosin. Stained sections were examined for evidence of colitis using as criteria the presence of cell infiltration, elongation and/or distortion of crypts, crypt abscesses, reduction in goblet cell number, frank ulceration, and oedema formation.
MPO activity was measured as follows. Two days after intracolonic injection of TNBS, 50 mg colon was removed, homogenised and sonicated on ice. Samples were frozen in liquid nitrogen and subsequently thawed in a water bath at 37° C., each step lasted 3 minutes and the procedure was repeated for two cycles. After centrifugation, an aliquot of the supernatant was then allowed to react with a solution of tetra-methyl-benzidine (1.6 mM) and 0.1 mM H2O2. The rate of change in absorbance was measured spectrophotometrically at 460 nm. MPO activity was defined as the quantity of enzyme degrading 1 μmole of peroxide/minute at 37° C. and was expressed in units per gram weight of wet tissue. Sample enzyme activity was measured from a standard curve of known MPO unit activity (assay sensitivity 5×10^−7 units per well).
Quantitative Reverse Transcriptase (RT)-PCR for cytokine mRNA was performed as follows: part of the colon tissues, removed on day 2 after TNBS application, was immediately frozen in liquid nitrogen after dissection and stored at −70° C. until extraction of total RNA using a method well known in the art. A constant amount of 1 μg of total RNA was used for oligo-(dT)-primed cDNA synthesis (Ready-to-go-kit, commercially available from Pharmacia, Sweden). After 90 minutes at 37° C., the reverse transcriptase was inactivated by incubating the cDNA samples for 5 minutes at 95° C. The amount of cDNA was quantified by real-time RT-PCR using specific primers for β-actin and TNF, with the ABI Prism 7700 Sequence Detectin System (SDS) commercially available from Applied Biosystems (California). PCR was performed in a total volume of 25 μl, containing 5 μl cDNA and 20 μl mix with the TaqMan® Universal PCR Master Mix (2×) (Applied Biosystems) combined with 300 nM of the primer and 100 nM of the probe. […]

[2] = Plasma levels after oral administration in healthy mice; format: in vivo, C57BL/6 mice
Description: Each group of 6 mice received the indicated dose at time point 0 and were bled at 1, 3 and 5 hours after compound administration. Quantification was performed using a calibration curve of known compound concentrations spiked in control serum.
The plasma levels of the tested compound (example 176) was evaluated in C57BL/6 mice 8-10 weeks old Harlan, weighing 18.6-22.0 g after oral administration of 20, 10, 5 and 1 mg/kg, respectively (n=6 per dose). The tested compound (example 176) was dissolved in water to the appropriate concentration in order to deliver a constant gavage volume of 10 μl/g of body weight. Blood was collected by eye bleeding with heparinized capillaries at 1, 3, and 5 hours after dosing from each animal. The plasma fraction was immediately separated by centrifugation for 2 minutes at 12,000 g and stored at −80° C. until analysis. Each plasma sample was spiked with internal standard followed by the addition of 4 volumes of methanol. The samples were kept for 30 minutes on ice prior to centrifugation (10 minutes at 12,000 g) in order to remove precipitated proteins. The supernatant was analyzed for the presence of the tested compound (example 176), using LC/MS/MS. As standard for the bio-analysis, the tested compound (example 176) was diluted stepwise; each dilution was added to control plasma; additionally spiked with internal standard, giving rise to standard curves from 200 to 40,000 nM.

[3] = system: TNF-α induced shock in C57BL/6 male mice; experiment: Protection against a lethal dose of TNF-α; format: in vivo
Description: A model of TNF-α induced shock in C57BL/6 male mice was performed as follows. Five animals from the control group received an intravenous administration of a lethal dose of TNF-α (10 μg) in the tail. Ten animals from the test group received three intraperitoneous injections of the pteridine derivative of example 17 (20 mg/kg/day) respectively 48 hours, 24 hours and immediately before an intravenous injection of TNF-α (10 μg).
Furthermore, all five mice from the control group died within 40 hours, the survival rate (80%) of mice that received the pteridine derivative of example 17 in addition to the TNF-α dose (10 μg) was quite substantial.

[4] = daily gavage 20 mg/kg, versus control mice

Structure (SMILES)	recovery of original body weight earlier than control mice ([1]; daily gavage 20 mg/kg)	microscopic score ([1]; daily gavage 20 mg/kg, day 2)	average macroscopic score ([1]; daily gavage 20 mg/kg, day 2, 0-12 scale)	tissue MPO activity in colon ([1]; daily gavage 20 mg/kg, two days after TNBS) [U/g]	decrease of tissue MPO activity [1, 4] [fold]	reduction in average macroscopic score [1, 4] [%]	mRNA for other cytokines (IFN-γ and IL-18) in colon ([1]; day 2, compared to control mice)	cytokine mRNA level for TNF in colon ([1]; day 2, ratio to β-actin multiplied by 10^6)	Anti-TNBS antibody (IgG1 and IgG2a) levels ([1]; serum day 10, compared to control mice)	serum level 5 hours after administration compared with TNF-alpha assay IC50 ([2]; 20 mg/kg oral)	circulating concentration (peak serum level) ([2]; 20 mg/kg oral, one hour after administration)	serum levels after 5 hours compared with TNF assay IC50 ([2]; all lower doses (10, 5 and 1 mg/kg oral))	peak serum levels with increasing doses ([2]; oral 1, 5, 10, 20 mg/kg, one hour after administration)	survival rate ([3]; TNF-α 10 μg i.v., 20 mg/kg/day i.p. three injections, within 40 hours) [%]	body temperature ([3]; followed for 40 hours, 20 mg/kg/day i.p. 48 h, 24 h and immediately before TNF-α 10 μg i.v.)
COc1ccc(-c2cnc3nc(N)nc(N4CCN(c5ccc(C)cc5)CC4)c3n2)cc1OC [Example 176, 2-amino-6-(3,4-dimethoxyphenyl)-4-((4-methylphenyl)-piperazin-1-yl)pteridine]	at least 4 days	5.7±0.6	6.2±0.4	6.7±1.4	2	30	no difference	18.1±8.5	similar	still above the IC50 value of the TNF-alpha assay	approximately 1 μM	lower than the IC50 value in the TNF assay	dose-dependent increase	–	–
COc1ccc(-c2cnc3nc(N)nc(N4CCN(C(=O)COc5ccccc5)CC4)c3n2)cc1OC [Example 17, 2-amino-4-[(N-phenoxyacetyl)-piperazin-1-yl]-6-(3,4-dimethoxy-phenyl)pteridine]	–	–	–	–	–	–	–	–	–	–	–	–	–	80	body temperature of control mice dropped significantly when compared to mice receiving the test compound
